Test results as given in PMC5218480 (PLoS ONE, 2017).

System: MV-4-11 cells
Experiment: Gene expression microarray analysis (Affymetrix PrimeView) and GSEA
Type: cell-based, human
Set-up: RFU PODN (11730768_x_at) / Fold change /veh PODN (11730768_x_at) / RFU LINC00158 (11744669_a_at) / Fold change /veh LINC00158 (11744669_a_at) / RFU DUSP10 (11751237_a_at) / Fold change /veh DUSP10 (11751237_a_at) / RFU ID3 (11757404_x_at) / Fold change /veh ID3 (11757404_x_at) / RFU PLEKHG5 (11737974_s_at) / Fold change /veh PLEKHG5 (11737974_s_at) / RFU LRRC4B (11730491_at) / Fold change /veh LRRC4B (11730491_at) / RFU GIMAP4 (11747438_a_at) / Fold change /veh GIMAP4 (11747438_a_at) / RFU KRT8 (11758183_x_at) / Fold change /veh KRT8 (11758183_x_at) / RFU CNN1 (11734310_a_at) / Fold change /veh CNN1 (11734310_a_at) / RFU VPS37D (11726825_at) / Fold change /veh VPS37D (11726825_at) / RFU C10orf10 (11716522_x_at) / Fold change /veh C10orf10 (11716522_x_at) / RFU KIR2DL2 /// KIR2DL4 /// KIR2DL5A /// KIR2DL5B /// KIR2DS1 /// KIR2DS2 /// KIR2DS3 /// KIR2DS4 /// KIR3DL3 /// KIR3DL3 /// KIR3DS1 (11738374_at) / Fold change /veh KIR2DL2 /// KIR2DL4 /// KIR2DL5A /// KIR2DL5B /// KIR2DS1 /// KIR2DS2 /// KIR2DS3 /// KIR2DS4 /// KIR3DL3 /// KIR3DL3 /// KIR3DS1 (11738374_at) / RFU C1QL1 (11718748_at) / Fold change /veh C1QL1 (11718748_at) / RFU TMPRSS4 (11747572_a_at) / Fold change /veh TMPRSS4 (11747572_a_at) / RFU HAMP (11756126_x_at) / Fold change /veh HAMP (11756126_x_at) / RFU RNFT2 (11725882_a_at) / Fold change /veh RNFT2 (11725882_a_at) / RFU NR4A2 (11747474_a_at) / Fold change /veh NR4A2 (11747474_a_at) / RFU ABCC12 (11746883_a_at) / Fold change /veh ABCC12 (11746883_a_at) / RFU TMEM136 (11760407_x_at) / Fold change /veh TMEM136 (11760407_x_at) / RFU CLDN22 /// WWC2 (11732394_at) / Fold change /veh CLDN22 /// WWC2 (11732394_at) / RFU HLA-DPB1 (11760878_x_at) / Fold change /veh HLA-DPB1 (11760878_x_at) / RFU SPINT1 (11716480_a_at) / Fold change /veh SPINT1 (11716480_a_at) / RFU GAP43 (11754022_s_at) / Fold change /veh GAP43 (11754022_s_at) / RFU A4GNT (11735810_at) / Fold change /veh A4GNT (11735810_at) / RFU PRB3 (11715151_x_at) / Fold change /veh PRB3 (11715151_x_at) / RFU TUBB4B (11761932_at) / Fold change /veh TUBB4B (11761932_at) / RFU CAPN14 (11732068_a_at) / Fold change /veh CAPN14 (11732068_a_at) / RFU TMCC2 (11721928_a_at) / Fold change /veh TMCC2 (11721928_a_at) / RFU IRGQ (11745062_a_at) / Fold change /veh IRGQ (11745062_a_at) / RFU FAM174B (11720279_a_at) / Fold change /veh FAM174B (11720279_a_at) / RFU TMPRSS4 (11748680_a_at) / Fold change /veh TMPRSS4 (11748680_a_at) / RFU FAM212B (11763350_a_at) / Fold change /veh FAM212B (11763350_a_at) / RFU PLEKHG5 (11743358_a_at) / Fold change /veh PLEKHG5 (11743358_a_at) / RFU ZSCAN30 (11745921_a_at) / Fold change /veh ZSCAN30 (11745921_a_at) / RFU CMKLR1 (11741424_a_at) / Fold change /veh CMKLR1 (11741424_a_at) / RFU LOC101060620 /// MAPK8IP1 (11723275_at) / Fold change /veh LOC101060620 /// MAPK8IP1 (11723275_at) / RFU SPTSSB (11747773_x_at) / Fold change /veh SPTSSB (11747773_x_at) / RFU PRSS12 (11739890_at) / Fold change /veh PRSS12 (11739890_at) / RFU BIN1 (11741810_x_at) / Fold change /veh BIN1 (11741810_x_at) / RFU WNT11 (11732464_a_at) / Fold change /veh WNT11 (11732464_a_at) / RFU C10orf10 (11716521_a_at) / Fold change /veh C10orf10 (11716521_a_at) / RFU C5orf56 (11738089_at) / Fold change /veh C5orf56 (11738089_at) / RFU CYB561 (11721691_x_at) / Fold change /veh CYB561 (11721691_x_at) / RFU ANKRD19P (11752326_a_at) / Fold change /veh ANKRD19P (11752326_a_at) / RFU OR2T12 /// OR2T33 /// OR2T8 (11738714_s_at) / Fold change /veh OR2T12 /// OR2T33 /// OR2T8 (11738714_s_at) / RFU VCAN (11748164_a_at) / Fold change /veh VCAN (11748164_a_at) / RFU JSRP1 (11732532_at) / Fold change /veh JSRP1 (11732532_at) / RFU KRTAP10-11 (11738290_x_at) / Fold change /veh KRTAP10-11 (11738290_x_at) / RFU MYO3A (11730013_a_at) / Fold change /veh MYO3A (11730013_a_at) / RFU EBF3 (11725865_a_at) / Fold change /veh EBF3 (11725865_a_at) / RFU CAMK2N1 (11719241_x_at) / Fold change /veh CAMK2N1 (11719241_x_at) / RFU C5orf56 (11738088_a_at) / Fold change /veh C5orf56 (11738088_a_at) / RFU OLFML3 (11715873_a_at) / Fold change /veh OLFML3 (11715873_a_at) / RFU LOC100653217 /// NTM (11731650_a_at) / Fold change /veh LOC100653217 /// NTM (11731650_a_at) / RFU MAPK11 (11762145_a_at) / Fold change /veh MAPK11 (11762145_a_at) / RFU FIZ1 (11724087_x_at) / Fold change /veh FIZ1 (11724087_x_at) / RFU OASL (11726364_x_at) / Fold change /veh OASL (11726364_x_at) / RFU SOX15 (11748057_x_at) / Fold change /veh SOX15 (11748057_x_at) / RFU CD79A (11719716_a_at) / Fold change /veh CD79A (11719716_a_at) / RFU HIST1H1D (11736915_at) / Fold change /veh HIST1H1D (11736915_at) / RFU CASKIN2 (11723855_a_at) / Fold change /veh CASKIN2 (11723855_a_at) / RFU LOC730098 (11760151_x_at) / Fold change /veh LOC730098 (11760151_x_at) / RFU OR4N2 (11742367_at) / Fold change /veh OR4N2 (11742367_at) / RFU PRRT2 (11749266_a_at) / Fold change /veh PRRT2 (11749266_a_at) / RFU SNX32 (11753110_a_at) / Fold change /veh SNX32 (11753110_a_at) / RFU CDHR5 (11726645_a_at) / Fold change /veh CDHR5 (11726645_a_at) / RFU RCAN1 (11760418_a_at) / Fold change /veh RCAN1 (11760418_a_at) / RFU FAM167A (11723789_a_at) / Fold change /veh FAM167A (11723789_a_at) / RFU FAM26E (11764081_at) / Fold change /veh FAM26E (11764081_at) / RFU ISYNA1 (11749810_s_at) / Fold change /veh ISYNA1 (11749810_s_at) / RFU ACY1 (11761880_at) / Fold change /veh ACY1 (11761880_at) / RFU 11764098_at / Fold change /veh 11764098_at / RFU SAMD14 (11745864_x_at) / Fold change /veh SAMD14 (11745864_x_at) / RFU NPB (11741838_a_at) / Fold change /veh NPB (11741838_a_at) / RFU TMPRSS6 (11731388_a_at) / Fold change /veh TMPRSS6 (11731388_a_at) / RFU KRTAP10-2 (11738614_at) / Fold change /veh KRTAP10-2 (11738614_at) / RFU ARHGAP8 /// PRR5-ARHGAP8 (11727945_x_at) / Fold change /veh ARHGAP8 /// PRR5-ARHGAP8 (11727945_x_at) / RFU KRTAP5-7 /// NADSYN1 (11734609_at) / Fold change /veh KRTAP5-7 /// NADSYN1 (11734609_at) / RFU RASL12 (11751679_a_at) / Fold change /veh RASL12 (11751679_a_at) / RFU CDKN2B (11736163_a_at) / Fold change /veh CDKN2B (11736163_a_at) / RFU PRF1 (11729649_at) / Fold change /veh PRF1 (11729649_at) / RFU, ZNF638 /// ZNF638-IT1 / Fold change vs veh, ZNF638 /// ZNF638-IT1 / RFU, PANK3 / Fold change vs veh, PANK3 / RFU, SH3YL1 / Fold change vs veh, SH3YL1 / RFU, ZEB2 / Fold change vs veh, ZEB2 / RFU, NRIP1 / Fold change vs veh, NRIP1 / RFU, PTTG1IP / Fold change vs veh, PTTG1IP / RFU, CAPN2 / Fold change vs veh, CAPN2 / RFU, MED14 / Fold change vs veh, MED14 / RFU, SNORA58 / Fold change vs veh, SNORA58 / RFU, C1orf63 / Fold change vs veh, C1orf63 / RFU, LRRFIP1 / Fold change vs veh, LRRFIP1 / RFU, NDUFAF7 / Fold change vs veh, NDUFAF7 / RFU, SLC12A2 / Fold change vs veh, SLC12A2 / RFU, IBTK / Fold change vs veh, IBTK / RFU, ESF1 / Fold change vs veh, ESF1 / Fold change vs veh, TMEM50B / RFU, TAOK1 / Fold change vs veh, TAOK1 / RFU, ACBD3 / Fold change vs veh, ACBD3 / RFU, TMA16 / Fold change vs veh, TMA16 / RFU, RWDD3 / Fold change vs veh, RWDD3 / RFU, BCAT1 / Fold change vs veh, BCAT1 / RFU, EDEM3 / Fold change vs veh, EDEM3 / RFU, TMEM33 / Fold change vs veh, TMEM33 / RFU, WDR75 / Fold change vs veh, WDR75 / RFU, AHCTF1 / Fold change vs veh, AHCTF1 / RFU, TFRC / Fold change vs veh, TFRC / RFU, ZDHHC17 / Fold change vs veh, ZDHHC17 / RFU, NOM1 / Fold change vs veh, NOM1 / RFU, ARL8B / Fold change vs veh, ARL8B / RFU, ZBTB11 / Fold change vs veh, ZBTB11 / RFU, TAMM41 / Fold change vs veh, TAMM41 / RFU, KIAA1704 /// LOC100996395 / Fold change vs veh, KIAA1704 /// LOC100996395 / RFU, ING1 / Fold change vs veh, ING1 / RFU, TRMT61B / Fold change vs veh, TRMT61B / RFU, FUBP3 / Fold change vs veh, FUBP3 / RFU, TP53 / Fold change vs veh, TP53 / RFU, TNKS2 / Fold change vs veh, TNKS2 / RFU, ZFP14 / Fold change vs veh, ZFP14 / RFU, ACTR2 / Fold change vs veh, ACTR2 / RFU, PPP3R1 / Fold change vs veh, PPP3R1 / RFU, PIK3R1 / Fold change vs veh, PIK3R1 / RFU, HNRNPA1 / Fold change vs veh, HNRNPA1 / RFU, RNF170 / Fold change vs veh, RNF170 / RFU, ZNF28 / Fold change vs veh, ZNF28 / RFU, RNGTT / Fold change vs veh, RNGTT / RFU, OGT / Fold change vs veh, OGT / RFU, BRD1 / Fold change vs veh, BRD1 / RFU, MARS / Fold change vs veh, MARS / RFU, ZNF655 / Fold change vs veh, ZNF655 / RFU, FAHD1 / Fold change vs veh, FAHD1 / RFU, BDP1 / Fold change vs veh, BDP1 / RFU, LRRCC1 / Fold change vs veh, LRRCC1 / RFU, ARID1A / Fold change vs veh, ARID1A / RFU, ZNF146 / Fold change vs veh, ZNF146 / RFU, ZNF330 / Fold change vs veh, ZNF330 / RFU, GPN3 / Fold change vs veh, GPN3 / RFU, C9orf123 / Fold change vs veh, C9orf123 / RFU, N4BP2L2 / Fold change vs veh, N4BP2L2 / RFU, ARFIP1 / Fold change vs veh, ARFIP1 / RFU, FAM179B / Fold change vs veh, FAM179B / RFU, BCL10 / Fold change vs veh, BCL10 / RFU, UHRF1BP1L / Fold change vs veh, UHRF1BP1L / RFU, BET1 / Fold change vs veh, BET1 / RFU, CNOT2 / Fold change vs veh, CNOT2 / RFU, ZNF268 / Fold change vs veh, ZNF268 / Fold change vs veh, ZNF507 / RFU, DGCR2 / Fold change vs veh, DGCR2 / RFU, WDSUB1 / Fold change vs veh, WDSUB1 / Fold change vs veh, HSP90B1 /// MIR3652 / RFU, ADSS / Fold change vs veh, ADSS / RFU, GK / Fold change vs veh, GK / RFU, ZNF148 / Fold change vs veh, ZNF148 / RFU, TAF9 / Fold change vs veh, TAF9 / RFU, SLC1A5 / Fold change vs veh, SLC1A5 / RFU, SLMO2 / Fold change vs veh, SLMO2 / RFU, ABCC4 / Fold change vs veh, ABCC4 / RFU, LOC101060439 /// RAP1B / Fold change vs veh, LOC101060439 /// RAP1B / RFU, RFX7 / Fold change vs veh, RFX7 / RFU, GTPBP10 / Fold change vs veh, GTPBP10 / RFU, CNEP1R1 / Fold change vs veh, CNEP1R1 / RFU, BIVM-ERCC5 /// ERCC5 / Fold change vs veh, BIVM-ERCC5 /// ERCC5 / RFU, ILF3 / Fold change vs veh, ILF3 / RFU 11762660_at / Fold change /veh 11762660_at / RFU VCAN (11757783_s_at) / Fold change /veh VCAN (11757783_s_at) / RFU DDX43 (11728927_at) / Fold change /veh DDX43 (11728927_at) / RFU KRT8 (11758188_x_at) / Fold change /veh KRT8 (11758188_x_at) / RFU NKD1 (11759106_at) / Fold change /veh NKD1 (11759106_at) / RFU SRD5A1 (11742802_a_at) / Fold change /veh SRD5A1 (11742802_a_at) / RFU TPSAB1 /// TPSB2 (11721975_s_at) / Fold change /veh TPSAB1 /// TPSB2 (11721975_s_at) / RFU GSTM3 (11746129_a_at) / Fold change /veh GSTM3 (11746129_a_at) / RFU IL23R (11737362_x_at) / Fold change /veh IL23R (11737362_x_at) / RFU TMEM51 (11727254_a_at) / Fold change /veh TMEM51 (11727254_a_at) / RFU PIWIL2 (11732686_x_at) / Fold change /veh PIWIL2 (11732686_x_at) / RFU ORM1 (11744905_x_at) / Fold change /veh ORM1 (11744905_x_at) / RFU CCDC152 (11743942_at) / Fold change /veh CCDC152 (11743942_at) / RFU ECM1 (11717891_a_at) / Fold change /veh ECM1 (11717891_a_at) / RFU IL23R (11748794_a_at) / Fold change /veh IL23R (11748794_a_at) / RFU TNFAIP8L3 (11732012_x_at) / Fold change /veh TNFAIP8L3 (11732012_x_at) / RFU MBOAT4 (11741988_at) / Fold change /veh MBOAT4 (11741988_at) / RFU 11764193_at / Fold change /veh 11764193_at / RFU TMEM53 (11763286_at) / Fold change /veh TMEM53 (11763286_at) / RFU MAGEB2 (11727129_at) / Fold change /veh MAGEB2 (11727129_at) / RFU TMEM200A (11744735_a_at) / Fold change /veh TMEM200A (11744735_a_at) / RFU CCDC152 (11751479_a_at) / Fold change /veh CCDC152 (11751479_a_at) / RFU FAM211A (11726209_a_at) / Fold change /veh FAM211A (11726209_a_at) / RFU RGS16 (11746705_a_at) / Fold change /veh RGS16 (11746705_a_at) / RFU VCAN (11755009_s_at) / Fold change /veh VCAN (11755009_s_at) / RFU RHOB (11743442_s_at) / Fold change /veh RHOB (11743442_s_at) / RFU RGS16 (11720943_a_at) / Fold change /veh RGS16 (11720943_a_at) / RFU RGS16 (11720944_at) / Fold change /veh RGS16 (11720944_at) / RFU, VPS4B / Fold change vs veh, VPS4B / RFU, CREB1 / Fold change vs veh, CREB1 / RFU, DNAJC13 / Fold change vs veh, DNAJC13 / RFU, GNAQ / Fold change vs veh, GNAQ / RFU, CDK5R1 / Fold change vs veh, CDK5R1 / RFU, ZRANB3 / Fold change vs veh, ZRANB3 / RFU, CUL4A / Fold change vs veh, CUL4A / RFU, CCNY / Fold change vs veh, CCNY / RFU, UFL1 / Fold change vs veh, UFL1 / RFU, COG3 / Fold change vs veh, COG3 / RFU, DIAPH2 / Fold change vs veh, DIAPH2 / RFU, SKA2 / Fold change vs veh, SKA2 / RFU, AFF3 / Fold change vs veh, AFF3 / RFU, LMF1 / Fold change vs veh, LMF1 / RFU, IPO11 / Fold change vs veh, IPO11 / RFU, DFFB / Fold change vs veh, DFFB / RFU, FOXP1 / Fold change vs veh, FOXP1 / RFU, CARD8 / Fold change vs veh, CARD8 / RFU, STRN3 / Fold change vs veh, STRN3 / RFU, ADK / Fold change vs veh, ADK / RFU, RASSF2 / Fold change vs veh, RASSF2 / RFU, WIPF1 / Fold change vs veh, WIPF1 / RFU, LARP1B / Fold change vs veh, LARP1B / RFU, RASA1 / Fold change vs veh, RASA1 / RFU, RB1 / Fold change vs veh, RB1 / RFU, PPFIA1 / Fold change vs veh, PPFIA1 / RFU, MAT2A / Fold change vs veh, MAT2A / RFU, CCT5 / Fold change vs veh, CCT5 / RFU, WDR92 / Fold change vs veh, WDR92 / RFU, CUX1 / Fold change vs veh, CUX1 / RFU, TTC7A / Fold change vs veh, TTC7A / RFU, TMEM135 / Fold change vs veh, TMEM135 / RFU, DEPTOR / Fold change vs veh, DEPTOR / RFU, CPM / Fold change vs veh, CPM / RFU, DNAJB6 / Fold change vs veh, DNAJB6 / RFU, CACNA2D3 / Fold change vs veh, CACNA2D3 / RFU, DTX4 / Fold change vs veh, DTX4 / RFU, TFCP2 / Fold change vs veh, TFCP2 / RFU, GMCL1 /// GMCL1P1 / Fold change vs veh, GMCL1 /// GMCL1P1 / RFU, AEBP2 / Fold change vs veh, AEBP2 / RFU, SNHG1 /// SNORD22 /// SNORD25 /// SNORD26 /// SNORD27 /// SNORD28 /// SNORD29 /// SNORD31 / Fold change vs veh, SNHG1 /// SNORD22 /// SNORD25 /// SNORD26 /// SNORD27 /// SNORD28 /// SNORD29 /// SNORD31 / Fold change (Aza/veh), C12orf56 (ProbeSet 11735607_a_at) / Fold change (ACY-1035/veh), C12orf56 (ProbeSet 11735607_a_at) / Fold change (Aza/veh), FGFR1OP (ProbeSet 11751329_s_at) / Fold change (ACY-1035/veh), FGFR1OP (ProbeSet 11751329_s_at) / Fold change (Aza/veh), VPS36 (ProbeSet 11739960_a_at) / Fold change (ACY-1035/veh), VPS36 (ProbeSet 11739960_a_at) / RFU SYPL1 (11715823_x_at) / Fold change /veh SYPL1 (11715823_x_at) / RFU IGFBP7 (11715501_s_at) / Fold change /veh IGFBP7 (11715501_s_at) / RFU REEP3 (11722064_at) / Fold change /veh REEP3 (11722064_at) / RFU IGLL1 (11728026_x_at) / Fold change /veh IGLL1 (11728026_x_at): dose or concentration left out as unconfirmed
Conditions: ProbeSet 11733108_at; LIST D

Nc1ncn([C@@H]2O[C@H](CO)[C@@H](O)[C@H]2O)c(=O)n1 [azacitidine]
Fold change vs veh, GNAQ: 0.77
